What was measured:
[1] = tested on: primary cortical neurons injured by glutamate; assay: glutamate toxicity on primary cortical neurons (neuron survival, neurite network); type: cell-based, rat; details: for effect on glutamate toxicity: at the lowest concentrations; for non-active concentration: see example 2
Description: Rat cortical neurons were cultured as described by Singer et al., 1999 [J. Neuroscience 19(7), 2455-2463] and Callizot et al. 2013 [J. Neurosc. Res. 91(5), 706-716].
Briefly, pregnant females (Wistar; JanvierLabs, St Berthevin, France) at 15 days of gestation were killed by cervical dislocation. Foetuses were collected and immediately placed in ice-cold L15 Leibovitz medium (Pan Biotech, Aidenbach, Germany, Batch: 4120413) with a 2% penicillin (10,000 U/ml) and streptomycin (10 mg/ml) solution (PS; Pan Biotech, Aidenbach, Germany) and 1% bovine serum albumin (BSA; Pan Biotech, Aidenbach, Germany). Cortex was treated for 20 min at 37° C. with a trypsin-EDTA (Pan Biotech, Aidenbach, Germany) solution at a final concentration of 0.05% trypsin and 0.02% EDTA. The dissociation was stopped by addition of Dulbecco's modified Eagle's medium (DMEM) with 4.5 g/liter of glucose (Pan Biotech, Aidenbach, Germany), containing DNAse I grade II (final concentration 0.5 mg/ml; Pan Biotech, Germany) and 10% fetal calf serum (FCS; Invitrogen, Cergy Pointoise, France). Cells were mechanically dissociated by three forced passages through the tip of a 10-ml pipette. Cells were then centrifuged at 515 g for 10 min at 4° C. The supernatant was discarded, and the pellet was resuspended in a defined culture medium consisting of Neurobasal medium (Invitrogen, Cergy Pointoise, France) with a 2% solution of B27 supplement (Invitrogen, Cergy Pointoise, France), 2 mmol/liter of L-glutamine (Pan Biotech, Aidenbach, Germany), 2% of PS solution, and 10 ng/ml of brain-derived neurotrophic factor (BDNF; Pan Biotech, Aidenbach, Germany). Viable cells were counted in a Neubauer cytometer, using the trypan blue exclusion test. The cells were seeded at a density of 30,000 per well in 96-well plates precoated with poly-L-lysine (Corning Biocoat, Tewksbury, USA) and were cultured at 37° C. in an air (95%)-CO2 (5%) incubator. The medium was changed every 2 days.
On day 13, the cultures were exposed for 20 minutes to glutamate 40 μM in the absence or presence of Huperzia serrata extracts. Then the cells were washed out and new fresh medium containing or not Huperzia serrata extracts was added for another 48 hours.
The cells were then fixed by a cold solution ethanol/acetic acid (95:5 v/v) for 5 minutes at −20° C. After permeabilization with 0.1% of saponin (Sigma), cells were incubated for 2 hours with mouse monoclonal antibody against microtubule-associated-protein 2 (MAP 2; Sigma) at dilution of 1/400 in PBS containing 1% foetal calf serum (Invitrogen) and 0.1% of saponin.
Neuron survival assessment: For each condition 6 wells were assessed, 20 pictures per well were taken using InCell Analyzer™ 1000 (GE Healthcare) with 20× magnification to assess cell bodies (MAP 2 staining). Analysis of picture was done using Developer software (GE Healthcare), the number of neurons per picture was recorded. A mean of neuron number of the 20 pictures was automatically calculated per well, then one data was provided per well (total of 6 raw data were provided per condition).
Neurite network length assessment: For each condition 6 wells were assessed, 20 pictures per well were taken using InCell Analyzer™ 1000 with 20× magnification (20 pictures at X20 representing ˜80% of the total well surface), to assess MAP-2 staining. Analysis of picture was done using Developer software, the total neurite length per picture was recorded. A mean neurite length of the 20 pictures was automatically calculated per well, then one data was provided per well (total of 6 raw data were provided per condition).
The protocol used in these assays is the same as described in example 1. After 13 days of neuron culture, the candidate compounds were solved in DMSO and diluted in culture medium. […]

[2] = tested on: primary cortical neurons injured by Aβ; assay: Aβ-peptide toxicity on primary cortical neurons (neuron survival, neurite network); type: cell-based, rat; details: Aβ 20 μM, 24 h
Description: The present study used an in vitro model of Alzheimer's disease established by Callizot et al. [2013, already cited], using Aβ-peptide solution containing Aβ-oligomers and permitting to reproduce essential neuropathological features of Alzheimer's disease.
The Aβ1-42-preparation was obtained following the procedure described by Callizot et al. [2013, already cited]. Briefly, Aβ1-42 peptide was dissolved in the defined culture medium mentioned above, devoid of serum, at an initial concentration of 40 μmol/liter. This solution was gently agitated for 3 days at 37° C. in the dark and immediately used after being diluted in culture medium to the concentrations used.
On day 11 of culture, HA, CA, FA and mixtures thereof were solved and diluted in culture medium and then pre-incubated with cortical neurons 1 hour before the Aβ1-42-peptide application. Aβ1-42-preparation was then added to a final concentration of 20 μM diluted in control medium.
After 24 hours of Aβ-intoxication, the cultures were fixed and immunolabeled and the neuron survival and the neurite network length were assessed as described in the above example.

SMILES | effect on glutamate toxicity [1] | neurite network ([1]; glutamate 40 μM, 20 min, 1 μM and 5 μM) | non-active concentration ([1]; glutamate 40 μM, 20 min) [pM] | neuron survival ([2]; 500 pM and below) | neurite network ([2]; even at lower concentrations) | neuron survival ([2]; from 5 nM up to 5 μM) | neurite network ([1]; glutamate 40 μM, 20 min, 10 μM and 100 μM) | neurite network ([2]; 10 and 100 μM) | neuron survival ([2]; whatever the concentration tested) | lowest active dose ([1]; glutamate 40 μM, 20 min) [nM] | neurite network ([1]; glutamate 40 μM, 20 min, 10 nM) [%] | neuron survival ([1]; glutamate 40 μM, 20 min, 10 nM) [%] | neuron survival ([2]; HA, all concentrations)
O=C(O)/C=C/c1ccc(O)c(O)c1 [CA, caffeic acid] | little or no effect | moderate effect | 500 | no effect | Protective effect | significantly protect |  |  |  |  |  |  | 
COc1cc(/C=C/C(=O)O)ccc1O [FA, ferulic acid] | little or no effect |  | 10000 |  |  |  | significant protective effect | significant effect | not able to protect |  |  |  | 
C/C=C1\[C@H]2C=C(C)C[C@]1(N)c1ccc(=O)[nH]c1C2 [HA, huperzine A, reference compound] | little or no effect |  | 10 |  |  |  |  |  |  | 1 | > 90 | 94 | not able to significantly protect

— US10596166B2, “Combination composition comprising huperzine” (priority 2015, dated 2020)
